Read-outs that look alike come from different tables or passages of the source.
Key:
[1] = test system: Immortalised Mouse Dermal Fibroblasts (MDFs); test: Cellular assay: inhibition of TSI induced necroptosis, CellTitre-Glo viability; settings: MDF, 3 hours TSI cocktail, read-out: Inhibition of TSI-induced necroptosis (IC50 cell-based assay) in MDF
Outline: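 Immortalised mouse dermal fibroblasts (2200 cells/well) pretreated 30 min with compound, 10-point 1:3 series from 36 μM, 0.3% DMSO. Then 3 h at 37° C. with TNF (100 ng/ml), Smac mimetic (500 nM) and IDN-6556 (10 μM). CellTiter-Glo luminescence normalised to DMSO (100%) and DMSO+TSI (0%); IC50 from 4-parameter logistic fit.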

endogenous MLKL in U937 = endogenous MLKL in U937 (Homo sapiens (Human), UniProt Q8NB16); test: Degradation assay: endogenous MLKL in U937 (western blot); settings: U937, 24 h incubation, read-out: Degradation of endogenous MLKL in U937 (DC50 cell-based assay)
Chain of endogenous MLKL in U937 (Q8NB16 whole entry): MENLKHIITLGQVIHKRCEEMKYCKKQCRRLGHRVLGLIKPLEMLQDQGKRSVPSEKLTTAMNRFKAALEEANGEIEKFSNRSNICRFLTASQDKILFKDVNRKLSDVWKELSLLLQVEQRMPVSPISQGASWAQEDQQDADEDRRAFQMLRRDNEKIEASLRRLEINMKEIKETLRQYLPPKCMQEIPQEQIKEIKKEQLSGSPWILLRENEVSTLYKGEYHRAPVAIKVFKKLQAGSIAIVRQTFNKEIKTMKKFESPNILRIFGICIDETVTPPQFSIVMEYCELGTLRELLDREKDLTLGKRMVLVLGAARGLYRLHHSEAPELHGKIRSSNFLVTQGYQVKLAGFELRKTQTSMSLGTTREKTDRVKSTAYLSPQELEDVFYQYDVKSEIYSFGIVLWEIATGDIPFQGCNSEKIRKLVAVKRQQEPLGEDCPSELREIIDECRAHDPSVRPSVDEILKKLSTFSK
Outline: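 MDF (seeded the day before) or U937 cells were treated 24 h at 37 °C, 10% CO2 with compound at 10, 2, 0.4, 0.08 and 0.016 μM final. Endogenous MLKL was quantified by western blot (anti-MLKL 3H1), normalized to GAPDH. Percent degradation was taken relative to DMSO control.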

[2] = Mus musculus, Fibroblast, Table 27

Molecule | DC50 (endogenous MLKL in U937) | IC50 [1, 2] | IC50 ([1]; Table 24)
Cc1ncsc1-c1ccc(CNC(=O)[C@@H]2C[C@@H](O)CN2C(=O)[C@@H](NC(=O)COCCN2CCC(n3cc(-c4cnc(N)c5c(-c6ccc(NS(=O)(=O)C(F)F)c(O[C@@H](C)c7ccc(F)cc7)c6)nn(C)c45)cn3)CC2)C(C)(C)C)cc1 [Compound 1018, (2S,4R)-1-[(2S)-2-(2-{2-[4-(4-{4-amino-3-[4-(difluoromethanesulfonamido)-3-[(1S)-1-(4-fluorophenyl)ethoxy]phenyl]-1-methyl-1H-pyrazolo[4,3-c]pyridin-7-yl}-1H-pyrazol-1-yl)piperidin-1-yl]ethoxy}acetamido)-3,3-dimethylbutanoyl]-4-hydroxy-N-{[4-(4-methyl-1,3-thiazol-5-yl)phenyl]methyl}pyrrolidine-2-carboxamide] | – | 1000 to 10000 nM | –
C[C@H](Oc1cc(-c2nn(C)c3c(-c4cnn(CCCCCCCOc5cccc6c5C(=O)N(C5CCC(=O)NC5=O)C6=O)c4)cnc(N)c23)ccc1NS(=O)(=O)C(F)F)c1ccc(F)cc1 (stereo partly drawn) [Compound 1031, N-(4-{4-amino-7-[1-(7-{[2-(2,6-dioxopiperidin-3-yl)-1,3-dioxo-2,3-dihydro-1H-isoindol-4-yl]oxy}heptyl)-1H-pyrazol-4-yl]-1-methyl-1H-pyrazolo[4,3-c]pyridin-3-yl}-2-[(1 S)-1-(4-fluorophenyl)ethoxy]phenyl)-1,1-difluoromethanesulfonamide] | – | < 1000 nM | –
Nc1ncc(-c2cnn(C3CCOCC3)c2)c2[nH]nc(-c3ccc(NS(=O)(=O)C(F)F)c(OCc4cccc(Cl)c4)c3)c12 [Compound 131] | – | – | 1000 to 10000 nM
N-(4-(4-amino-1-methyl-7-(1-(1,2,2-trimethylpiperidin-4-yl)-1H-pyrazol-4-yl)-1H-pyrazolo[4,3-c]pyridin-3-yl)-2-((S)-1-(4-fluorophenyl)ethoxy)phenyl)-1,1-difluoromethanesulfonamide [Compound 113] | – | – | < 1000 nM

Second part, led by results:

DC50 (endogenous MLKL in U937) | Molecule | IC50 [1, 2] | IC50 ([1]; Table 24)
1000 to 10000 nM | Cc1ncsc1-c1ccc(CNC(=O)[C@@H]2C[C@@H](O)CN2C(=O)[C@@H](NC(=O)COCCN2CCCC(n3cc(-c4cnc(N)c5c(-c6ccc(NS(=O)(=O)C(F)F)c(O[C@@H](C)c7ccc(F)cc7)c6)nn(C)c45)cn3)C2)C(C)(C)C)cc1 (stereo partly drawn) [Compound 1015, (2S,4R)-1-[(2S)-2-(2-{2-[3-(4-{4-amino-3-[4-(difluoromethanesulfonamido)-3-[(1S)-1-(4-fluorophenyl)ethoxy]phenyl]-1-methyl-1H-pyrazolo[4,3-c]pyridin-7-yl}-1H-pyrazol-1-yl)piperidin-1-yl]ethoxy}acetamido)-3,3-dimethylbutanoyl]-4-hydroxy-N-{[4-(4-methyl-1,3-thiazol-5-yl)phenyl]methyl}pyrrolidine-2-carboxamide] | 1000 to 10000 nM | –
< 1000 nM | Cc1ncsc1-c1ccc(CNC(=O)[C@@H]2C[C@@H](O)CN2C(=O)[C@@H](NC(=O)CCN2CCCC(n3cc(-c4cnc(N)c5c(-c6ccc(NS(=O)(=O)C(F)F)c(O[C@@H](C)c7ccc(F)cc7)c6)nn(C)c45)cn3)C2)C(C)(C)C)cc1 (stereo partly drawn) [Compound 1014, (2S,4R)-1-[(2S)-2-{3-[3-(4-{4-amino-3-[4-(difluoromethanesulfonamido)-3-[(1S)-1-(4-fluorophenyl)ethoxy]phenyl]-1-methyl-1H-pyrazolo[4,3-c]pyridin-7-yl}-1H-pyrazol-1-yl)piperidin-1-yl]propanamido}-3,3-dimethylbutanoyl]-4-hydroxy-N-{[4-(4-methyl-1,3-thiazol-5-yl)phenyl]methyl}pyrrolidine-2-carboxamide] | 1000 to 10000 nM | –
< 1000 nM | Cc1ncsc1-c1ccc(CNC(=O)[C@@H]2C[C@@H](O)CN2C(=O)[C@@H](NC(=O)CCCCCCn2cc(-c3cnc(N)c4c(-c5ccc(NS(=O)(=O)C(F)F)c(O[C@@H](C)c6ccc(F)cc6)c5)nn(C)c34)cn2)C(C)(C)C)cc1 [Compound 1008, (2S,4R)-1-[(2S)-2-[7-(4-{4-amino-3-[4-(difluoromethanesulfonamido)-3-[(1 S)-1-(4-fluorophenyl)ethoxy]phenyl]-1-methyl-1H-pyrazolo[4,3-c]pyridin-7-yl}-1H-pyrazol-1-yl)heptanamido]-3,3-dimethylbutanoyl]-4-hydroxy-N-{[4-(4-methyl-1,3-thiazol-5-yl)phenyl]methyl}pyrrolidine-2-carboxamide] | < 1000 nM | –
< 1000 nM | Cc1ncsc1-c1ccc(CNC(=O)[C@@H]2C[C@@H](O)CN2C(=O)[C@@H](NC(=O)COCCOCCn2cc(-c3cnc(N)c4c(-c5ccc(NS(=O)(=O)C(F)F)c(O[C@@H](C)c6ccc(F)cc6)c5)nn(C)c34)cn2)C(C)(C)C)cc1 [Compound 1006, (2S,4R)-1-[(2S)-2-(2-{2-[2-(4-{4-amino-3-[4-(difluoromethanesulfonamido)-3-[(1S)-1-(4-fluorophenyl)ethoxy]phenyl]-1-methyl-1H-pyrazolo[4,3-c]pyridin-7-yl}-1H-pyrazol-1-yl)ethoxy]ethoxy}acetamido)-3,3-dimethylbutanoyl]-4-hydroxy-N-{[4-(4-methyl-1,3-thiazol-5-yl)phenyl]methyl}pyrrolidine-2-carboxamide] | 1000 to 10000 nM | –

Reference: patent US20250115598A1 (Anaxis Pharma Pty Ltd, priority 2021, published 2025)
